Measured values: patent publication US6914045B2, “Glycopeptide antibiotics” (Wyeth Holdings Corporation, priority 2001, dated 2005)
In brackets after ≈: the same amount, converted by molar mass.

Key:
Test in all cases: in vitro antibacterial evaluation, MIC by broth dilution
Format in all cases: cell-based
[1] = system: Escherichia coli; conditions: 18 hours at 35° C.
[2] = system: Staphylococcus sp.; conditions: broth dilution, 18 hours at 35° C.
Outline: (§1)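 Step 1: dilute antibiotic across 64-0.06 μg/mL in Muller-Hinton II […]. Step 2: inoculate at 5×10^5 CFU/mL.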

[3] = system: Enterococcus sp.; conditions: broth dilution, 18 hours at 35° C.
Outline: as §1

[4] = system: Streptococcus sp.; conditions: broth dilution, 18 hours at 35° C.
Outline: as §1

MIC Escherichia coli (ATCC 25922) [1]: >64 µg/mL | MIC Escherichia coli (GC 4559) [1]: >64 µg/mL | MIC Escherichia coli (GC 4560) [1]: 16 µg/mL (≈ 10.1 µM) | MIC Coagulase Negative Staphylococcus (GC 4547) [2]: 16 µg/mL (≈ 10.1 µM) | MIC Coagulase Negative Staphylococcus (GC 4548) [2]: 16 µg/mL (≈ 10.1 µM) | MIC Coagulase Negative Staphylococcus (GC 4549) [2]: 16 µg/mL (≈ 10.1 µM) | MIC Coagulase Negative Staphylococcus (GC 4551) [2]: 16 µg/mL (≈ 10.1 µM) | MIC Staphylococcus aureus-SMITH (GC 4543) [2]: 32 µg/mL (≈ 20.2 µM) | MIC Staphylococcus aureus-SMITH (GC 4543) ([2]; strain GC 4543): 32 µg/mL (≈ 20.2 µM) | MIC Coagulase Negative Staphylococcus (GC 4547) ([2]; strain GC 4547): 16 µg/mL (≈ 10.1 µM) | MIC Coagulase Negative Staphylococcus (GC 4548) ([2]; strain GC 4548): 16 µg/mL (≈ 10.1 µM) | MIC Coagulase Negative Staphylococcus (GC 4549) ([2]; strain GC 4549): 16 µg/mL (≈ 10.1 µM) | MIC Coagulase Negative Staphylococcus (GC 4551) ([2]; strain GC 4551): 16 µg/mL (≈ 10.1 µM) | MIC Staphylococcus aureus (ATCC 29213) ([2]; strain ATCC 29213): 32 µg/mL (≈ 20.2 µM) | MIC Staphylococcus aureus (GC 1131) ([2]; strain GC 1131): 32 µg/mL (≈ 20.2 µM) | MIC Staphylococcus aureus (GC 3051) ([2]; strain GC 3051): 32 µg/mL (≈ 20.2 µM) | MIC Staphylococcus aureus (GC 3053) ([2]; strain GC 3053): 32 µg/mL (≈ 20.2 µM) | MIC Staphylococcus aureus (GC 4541) ([2]; strain GC 4541): 32 µg/mL (≈ 20.2 µM) | MIC Staphylococcus aureus (GC 4542) ([2]; strain GC 4542): 32 µg/mL (≈ 20.2 µM) | MIC Staphylococcus aureus (GC 4544) ([2]; strain GC 4544): 32 µg/mL (≈ 20.2 µM) | MIC Staphylococcus aureus (GC 4545) ([2]; strain GC 4545): 32 µg/mL (≈ 20.2 µM) | MIC Enterococcus avium (GC 4558) [3]: 8 µg/mL (≈ 5.05 µM) | MIC Enterococcus faecalis (ATCC 29212) [3]: 32 µg/mL (≈ 20.2 µM) | MIC Enterococcus faecalis (GC 2242) [3]: 32 µg/mL (≈ 20.2 µM) | MIC Enterococcus faecalis (GC 2691) [3]: 32 µg/mL (≈ 20.2 µM) | MIC Enterococcus faecalis (GC 3059) [3]: 32 µg/mL (≈ 20.2 µM) | MIC Enterococcus faecalis (GC 4552) [3]: 32 µg/mL (≈ 20.2 µM) | MIC Enterococcus faecalis (GC 4553) [3]: 16 µg/mL (≈ 10.1 µM) | MIC Enterococcus faecalis (GC 4554) [3]: 32 µg/mL (≈ 20.2 µM) | MIC Enterococcus faecalis (GC 6189) [3]: 32 µg/mL (≈ 20.2 µM) | MIC Enterococcus faecium (GC 2243) [3]: 16 µg/mL (≈ 10.1 µM) | MIC Enterococcus faecium (GC 4556) [3]: 32 µg/mL (≈ 20.2 µM) | MIC Enterococcus faecium (GC 4557) [3]: 16 µg/mL (≈ 10.1 µM) | MIC Enterococcus faecalis (ATCC 29212) ([3]; inoculum 5×10^5 CFU/mL, strain ATCC 29212): 32 µg/mL (≈ 20.2 µM) | MIC Enterococcus faecalis (GC 2242) ([3]; inoculum 5×10^5 CFU/mL, strain GC 2242): 32 µg/mL (≈ 20.2 µM) | MIC Enterococcus faecium (GC 2243) ([3]; inoculum 5×10^5 CFU/mL, strain GC 2243): 16 µg/mL (≈ 10.1 µM) | MIC Enterococcus faecalis (GC 2691) ([3]; inoculum 5×10^5 CFU/mL, strain GC 2691): 32 µg/mL (≈ 20.2 µM) | MIC Enterococcus faecalis (GC 3059) ([3]; inoculum 5×10^5 CFU/mL, strain GC 3059): 32 µg/mL (≈ 20.2 µM) | MIC Enterococcus faecalis (GC 4552) ([3]; inoculum 5×10^5 CFU/mL, strain GC 4552): 32 µg/mL (≈ 20.2 µM) | MIC Enterococcus faecalis (GC 4553) ([3]; inoculum 5×10^5 CFU/mL, strain GC 4553): 16 µg/mL (≈ 10.1 µM) | MIC Enterococcus faecalis (GC 4554) ([3]; inoculum 5×10^5 CFU/mL, strain GC 4554): 32 µg/mL (≈ 20.2 µM) | MIC Enterococcus faecium (GC 4556) ([3]; inoculum 5×10^5 CFU/mL, strain GC 4556): 32 µg/mL (≈ 20.2 µM) | MIC Enterococcus faecium (GC 4557) ([3]; inoculum 5×10^5 CFU/mL, strain GC 4557): 16 µg/mL (≈ 10.1 µM) | MIC Enterococcus avium (GC 4558) ([3]; inoculum 5×10^5 CFU/mL, strain GC 4558): 8 µg/mL (≈ 5.05 µM) | MIC Enterococcus faecalis (GC 6189) ([3]; inoculum 5×10^5 CFU/mL, strain GC 6189): 32 µg/mL (≈ 20.2 µM) | MIC Streptococcus agalactiae (GC 4564) [4]: 16 µg/mL (≈ 10.1 µM) | MIC Streptococcus pneumoniae (ATCC 6301) [4]: 8 µg/mL (≈ 5.05 µM) | MIC Streptococcus pneumoniae (GC 1894) [4]: 8 µg/mL (≈ 5.05 µM) | MIC Streptococcus pneumoniae (GC 4565) [4]: 8 µg/mL (≈ 5.05 µM) | MIC Streptococcus pyogenes (GC 4563) [4]: 8 µg/mL (≈ 5.05 µM) | MIC Streptococcus pneumoniae (ATCC 6301) ([4]; inoculum 5×10^5 CFU/mL, strain ATCC 6301): 8 µg/mL (≈ 5.05 µM) | MIC Streptococcus pneumoniae (GC 1894) ([4]; inoculum 5×10^5 CFU/mL, strain GC 1894): 8 µg/mL (≈ 5.05 µM) | MIC Streptococcus pyogenes (GC 4563) ([4]; inoculum 5×10^5 CFU/mL, strain GC 4563): 8 µg/mL (≈ 5.05 µM) | MIC Streptococcus agalactiae (GC 4564) ([4]; inoculum 5×10^5 CFU/mL, strain GC 4564): 16 µg/mL (≈ 10.1 µM) | MIC Streptococcus pneumoniae (GC 4565) ([4]; inoculum 5×10^5 CFU/mL, strain GC 4565): 8 µg/mL (≈ 5.05 µM)
Compound: CC(c1ccccc1)C1NC(=O)CNC(=O)C(CO)NC(=O)C(C(O)C2CN(c3ncccn3)C(=N)N2C2OC(CO)C(O)C(O)C2O)NC(=O)C(C(O)C2CNC(=Nc3ncccn3)N2)NC(=O)C(Cc2ccc(OC3OC(CO)C(OC4OC5COC6(OC5C(O)C4O)C4CC5CC(C4)CC6C5)C(O)C3O)cc2)NC1=O (stereo not drawn) [Example 228]
MIC Staphylococcus haemolyticus (GC 4546) [2]: 16 µg/mL (≈ 10.1 µM) | MIC Staphylococcus haemolyticus (GC 4546) ([2]; strain GC 4546): 16 µg/mL (≈ 10.1 µM)
